Patent US12139492B2 (Endotarget Inc., priority 2021, dated 2024)
Where two headings read alike, the source gives them in different places.

Assays:
Mino cells = assay: Antiproliferative effect, MTS cell viability assay, Mino cells; type: cell-based; settings: Homo sapiens, MINO, Mino mantle cell lymphoma cells; read-out: IC50 (anti-proliferation) Mino cells
Procedure, shortened: (§1)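 Absorbance at 490 nm of formazan, formed by metabolically active cells from MTS tetrazolium, served as the viability measure after a 72 h treatment across a 0.001–10 μM concentration series plus untreated control.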

JeKo-1 cells = assay: Antiproliferative effect, MTS cell viability assay, JeKo-1 cells; type: cell-based; settings: Homo sapiens; JeKo-1 mantle cell lymphoma cells; read-out: IC50 (anti-proliferation) JeKO-1 cells
Procedure, shortened: as §1

BTK = BTK (Homo sapiens, UniProt Q06187); assay: Degradation of BTK protein in Namalwa cells (Western blot; DC50, Dmax); settings: for DC50: cell line not given
[1] = read-out: DC50 (BTK degradation), concentration giving 50% reduction of BTK expression level
[2] = read-out: Dmax (BTK degradation)

Chain of BTK (Q06187 whole entry): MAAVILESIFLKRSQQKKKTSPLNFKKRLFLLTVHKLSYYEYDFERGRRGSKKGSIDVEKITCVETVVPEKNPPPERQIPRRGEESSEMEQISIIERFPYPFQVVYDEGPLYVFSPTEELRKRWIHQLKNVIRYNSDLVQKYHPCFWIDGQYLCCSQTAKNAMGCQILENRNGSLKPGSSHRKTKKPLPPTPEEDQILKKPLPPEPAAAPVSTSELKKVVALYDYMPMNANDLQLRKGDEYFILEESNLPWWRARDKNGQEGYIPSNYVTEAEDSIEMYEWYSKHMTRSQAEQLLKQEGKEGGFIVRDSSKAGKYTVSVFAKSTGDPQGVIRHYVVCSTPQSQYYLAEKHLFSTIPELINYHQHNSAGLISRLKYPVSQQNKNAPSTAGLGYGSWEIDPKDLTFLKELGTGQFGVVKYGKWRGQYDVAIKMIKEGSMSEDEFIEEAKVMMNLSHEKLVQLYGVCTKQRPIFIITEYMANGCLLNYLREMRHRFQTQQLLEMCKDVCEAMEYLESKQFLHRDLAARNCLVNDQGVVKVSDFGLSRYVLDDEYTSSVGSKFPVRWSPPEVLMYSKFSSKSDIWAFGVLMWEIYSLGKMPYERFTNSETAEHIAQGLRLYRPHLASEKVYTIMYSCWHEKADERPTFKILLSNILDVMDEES

| Dmax (BTK) | DC50 (BTK; BTK degradation) | DC50 (BTK; [1]) | Dmax (BTK; [2]) | degradation of BTK protein (BTK; Namalwa B lymphocyte cells, various concentrations, 24 hours, Western blot) | Structure (SMILES) | IC50 (Mino cells) | IC50 (JeKo-1 cells) |
| --- | --- | --- | --- | --- | --- | --- | --- |
| > 90% | 10 to 50 nM |  |  |  | Nc1ncnc2c1c(-c1ccc(Oc3ccccc3)cc1)nn2C1CCN(C2CCN(C(=O)N3CCC(N4CCN(c5ccc6c(c5)C(=O)N(C5CCC(=O)NC5=O)C6=O)CC4)CC3)CC2)CC1 (centres unmarked) [Compound 231, 5-(4-(1-(4-(4-amino-3-(4-phenoxyphenyl)-1H-pyrazolo[3,4-d]pyrimidin-1-yl)-[1,4′-bipiperidine]-1′-carbonyl)piperidin-4-yl)piperazin-1-yl)-2-(2,6-dioxopiperidin-3-yl)isoindoline-1,3-dione] | 1000 to 10000 nM | 1000 to 10000 nM |
|  |  | 10 to 50 nM | > 90% |  | Nc1ncnc2c1c(-c1ccc(Oc3ccccc3)cc1)nn2C1CCN(C(=O)NCCN2CCN(c3ccc4c(c3)C(=O)N(C3CCC(=O)NC3=O)C4=O)CC2)CC1 (centres unmarked) [Compound 520, 4-(4-amino-3-(4-phenoxyphenyl)-1H-pyrazolo[3,4-d]pyrimidin-1-yl)-N-(2-(4-(2-(2,6-dioxopiperidin-3-yl)-1,3-dioxoisoindolin-5-yl)piperazin-1-yl)ethyl)piperidine-1-carboxamide] | < 1000 nM | < 1000 nM |
| > 75% | > 50 nM |  |  |  | NC(=O)c1c(-c2ccc(Oc3ccccc3)cc2)nn2c1NCCC2C1CCN(C(=O)N2CCC(CCN3CCC(c4ccc5c(c4)C(=O)N(C4CCC(=O)NC4=O)C5=O)CC3)CC2)CC1 (centres unmarked) [Compound 285, 7-(1-(4-(2-(4-(2-(2,6-dioxopiperidin-3-yl)-1,3-dioxoisoindolin-5-yl)piperidin-1-yl)ethyl)piperidine-1-carbonyl)piperidin-4-yl)-2-(4-phenoxyphenyl)-4,5,6,7-tetrahydropyrazolo[1,5-a]pyrimidine-3-carboxamide] | 1000 to 10000 nM | 1000 to 10000 nM |
|  |  | > 50 nM | > 50% |  | Nc1ncnc2c1c(-c1ccc(Oc3ccccc3)cc1)nn2C1CCN(C2CCN(CCCCC#Cc3ccc(N4CCC(=O)NC4=O)cc3)C2)CC1 (centres unmarked) [Compound 536, 1-(4-(6-(3-(4-(4-amino-3-(4-phenoxyphenyl)-1H-pyrazolo[3,4-d]pyrimidin-1-yl)piperidin-1-yl)pyrrolidin-1-yl)hex-1-yn-1-yl)phenyl)dihydropyrimidine-2,4(1H,3H)-dione] | > 10000 nM | > 10000 nM |
|  |  | 10 to 50 nM | > 90% |  | Nc1ncnc2c1c(-c1ccc(Oc3ccccc3)cc1)nn2C1CCN(CC2CCN(CC3CN(c4ccc5c(c4)C(=O)N(C4CCC(=O)NC4=O)C5=O)C3)CC2)CC1 (centres unmarked) [Compound 429, 5-(3-((4-((4-(4-amino-3-(4-phenoxyphenyl)-1H-pyrazolo(3,4-d)pyrimidin-1-yl)piperidin-1-yl)methyl)piperidin-1-yl)methyl)azetidin-1-yl)-2-(2,6-dioxopiperidin-3-yl)isoindoline-1,3-dione] | < 1000 nM | 1000 to 10000 nM |
| > 75% | > 50 nM |  |  |  | Nc1ncnc2c1c(-c1ccc(Oc3ccccc3)cc1)nn2C1CCN(C2CCN(CCCC3CCN(c4ccc5c(c4)C(=O)N(C4CCC(=O)NC4=O)C5=O)CC3)CC2)CC1 (centres unmarked) [Compound 225, 5-(4-(3-(4-(4-amino-3-(4-phenoxyphenyl)-1H-pyrazolo[3,4-d]pyrimidin-1-yl)-[1,4′-bipiperidin]-1′-yl)propyl)piperidin-1-yl)-2-(2,6-dioxopiperidin-3-yl)isoindoline-1,3-dione] | > 10000 nM | > 10000 nM |
|  |  | 10 to 50 nM | > 90% |  | Nc1ncnc2c1c(-c1ccc(Oc3ccccc3)cc1)nn2C1CCN(C2CCN(CC3CCN(c4ccc(NC5CCC(=O)NC5=O)cc4)CC3)CC2)CC1 (centres unmarked) [Compound 578, 3-((4-(4-((4-(4-amino-3-(4-phenoxyphenyl)-1H-pyrazolo[3,4-d]pyrimidin-1-yl)-[1,4′-bipiperidin]-1′-yl)methyl)piperidin-1-yl)phenyl)amino)piperidine-2,6-dione] | 1000 to 10000 nM | 1000 to 10000 nM |
|  |  | < 10 nM | > 90% |  | Nc1ncnc2c1c(-c1ccc(Oc3ccccc3)cc1)nn2C1CCN([C@H]2CCN(CC3CCN(c4ccc5c(c4)C(=O)N(C4CCC(=O)NC4=O)C5=O)CC3)C2)CC1 (stereo partly drawn) [Compound 449a, 5-(4-(((S)-3-(4-(4-amino-3-(4-phenoxyphenyl)-1H-pyrazolo[3,4-d]pyrimidin-1-yl)piperidin-1-yl)pyrrolidin-1-yl)methyl)piperidin-1-yl)-2-(2,6-dioxopiperidin-3-yl)isoindoline-1,3-dione] | < 1000 nM | < 1000 nM |
|  |  | 10 to 50 nM | > 90% |  | NC(=O)c1c(-c2ccc(Oc3ccccc3)cc2)nn2c1NCC[C@H]2C1CCN(CC2CCN(C(=O)N3CCN(C4CCN(c5ccc6c(c5)CN(C5CCC(=O)NC5=O)C6=O)CC4)CC3)CC2)CC1 (stereo partly drawn) [Compound 402, (7S)-7-(1-((1-(4-(1-(2-(2,6-dioxopiperidin-3-yl)-1-oxoisoindolin-5-yl)piperidin-4-yl)piperazine-1-carbonyl)piperidin-4-yl)methyl)piperidin-4-yl)-2-(4-phenoxyphenyl)-4,5,6,7-tetrahydropyrazolo[1,5-a]pyrimidine-3-carboxamide] | < 1000 nM | 1000 to 10000 nM |
|  |  | < 10 nM | > 90% | dose-dependent degradation | Nc1ncnc2c1c(-c1ccc(Oc3ccccc3)cc1)nn2C1CCN(CC2CCN(/C=C\C(=O)CN3CCN(c4ccc5c(c4)CN(C4CCC(=O)NC4=O)C5=O)CC3)CC2)CC1 (centres unmarked) [Compound 421, (Z)-3-(5-(4-(4-(4-((4-(4-amino-3-(4-phenoxyphenyl)-1H-pyrazolo[3,4-d]pyrimidin-1-yl)piperidin-1-yl)methyl)piperidin-1-yl)-2-oxobut-3-en-1-yl)piperazin-1-yl)-1-oxoisoindolin-2-yl)piperidine-2,6-dione] | 1000 to 10000 nM | 1000 to 10000 nM |
|  |  | 10 to 50 nM | > 90% |  | NC(=O)c1c(-c2ccc(Oc3ccccc3)cc2)nn2c1NCC[C@H]2C1CCN(CC2CCN(C(=O)N3CCN(CC4CCN(c5ccc6c(c5)CN(C5CCC(=O)NC5=O)C6=O)CC4)CC3)CC2)CC1 (stereo partly drawn) [Compound 412, (7S)-7-(1-((1-(4-((1-(2-(2,6-dioxopiperidin-3-yl)-1-oxoisoindolin-5-yl)piperidin-4-yl)methyl)piperazine-1-carbonyl)piperidin-4-yl)methyl)piperidin-4-yl)-2-(4-phenoxyphenyl)-4,5,6,7-tetrahydropyrazolo[1,5-a]pyrimidine-3-carboxamide] | 1000 to 10000 nM | < 1000 nM |
|  |  | 10 to 50 nM | > 90% |  | Nc1ncnc2c1c(-c1ccc(Oc3ccccc3)cc1)nn2C1CCN(CC2CCN(CC3CCN(c4ccc5c(c4)CN(C4CCC(=O)NC4=O)C5=O)C3)C2)CC1 (centres unmarked) [Compound 448, 3-(5-(3-((3-((4-(4-amino-3-(4-phenoxyphenyl)-1H-pyrazolo[3,4-d]pyrimidin-1-yl)piperidin-1-yl)methyl)pyrrolidin-1-yl)methyl)pyrrolidin-1-yl)-1-oxoisoindolin-2-yl)piperidine-2,6-dione] | 1000 to 10000 nM | 1000 to 10000 nM |
|  |  | 10 to 50 nM | > 75% |  | NC(=O)c1c(-c2ccc(Oc3ccccc3)cc2)nn2c1NCC[C@H]2C1CCN(C2CCN(C(=O)N3CCC(CN4CCC(c5ccc6c(c5)CN(C5CCC(=O)NC5=O)C6=O)CC4)CC3)CC2)CC1 (stereo partly drawn) [Compound 396, (7S)-7-(1′-(4-((4-(2-(2,6-dioxopiperidin-3-yl)-1-oxoisoindolin-5-yl)piperidin-1-yl)methyl)piperidine-1-carbonyl)-[1,4′-bipiperidin]-4-yl)-2-(4-phenoxyphenyl)-4,5,6,7-tetrahydropyrazolo[1,5-a]pyrimidine-3-carboxamide] | 1000 to 10000 nM | > 10000 nM |
| > 75% | 10 to 50 nM |  |  |  | NC(=O)c1c(-c2ccc(Oc3ccccc3)cc2)nn2c1NCCC2C1CCN(C2CCN(CCC3CCN(c4ccc5c(c4)C(=O)N(C4CCC(=O)NC4=O)C5=O)CC3)CC2)CC1 (centres unmarked) [Compound 309, 7-(1′-(2-(1-(2-(2,6-dioxopiperidin-3-yl)-1,3-dioxoisoindolin-5-yl)piperidin-4-yl)ethyl)-[1,4′-bipiperidin]-4-yl)-2-(4-phenoxyphenyl)-4,5,6,7-tetrahydropyrazolo[1,5-a]pyrimidine-3-carboxamide] | > 10000 nM | > 10000 nM |
|  |  | < 10 nM | > 90% |  | Nc1ncnc2c1c(-c1ccc(Oc3ccccc3)cc1)nn2C1CCN(C[C@H]2CCN(C[C@@H]3CCN(c4ccc5c(c4)C(=O)N(C4CCC(=O)NC4=O)C5=O)C3)C2)CC1 (stereo partly drawn) [Compound 447b, 5-((S)-3-(((R)-3-((4-(4-amino-3-(4-phenoxyphenyl)-1H-pyrazolo[3,4-d]pyrimidin-1-yl)piperidin-1-yl)methyl)pyrrolidin-1-yl)methyl)pyrrolidin-1-yl)-2-(2,6-dioxopiperidin-3-yl)isoindoline-1,3-dione] | 1000 to 10000 nM | 1000 to 10000 nM |
|  |  | < 10 nM | > 90% |  | Nc1ncnc2c1c(-c1ccc(Oc3ccccc3)cc1)nn2C1CCN(CC2CN(C[C@@H]3CCN(c4ccc5c(c4)C(=O)N(C4CCC(=O)NC4=O)C5=O)C3)C2)CC1 (stereo partly drawn) [Compound 443b, 5-((S)-3-((3-((4-(4-amino-3-(4-phenoxyphenyl)-1H-pyrazolo[3,4-d]pyrimidin-1-yl)piperidin-1-yl)methyl)azetidin-1-yl)methyl)pyrrolidin-1-yl)-2-(2,6-dioxopiperidin-3-yl)isoindoline-1,3-dione] | < 1000 nM | < 1000 nM |
